Results as given in paper PMC4965013, “Open Source Drug Discovery with the Malaria Box Compound Collection for Neglected Diseases and Beyond” (PLoS Pathogens, 2016).

Tests used:
[1] = tested on: P. falciparum 3D7 trophozoites; assay: Metabolomic fingerprint profiling LC-MS; type: cell-based, Plasmodium falciparum; design: UDP-D-glucose / ADP-D-glucose: unit not given here; details: for Acetyllysine / N-acetyl-L-ornithine / N-carbamoyl-L-aspartate / NADPH / dAMP / dCMP / dTDP / dTMP / dTTP / dihydroorotate / orotate / DLH / DLS/SDL/SID / PD / PEE / PVNF / 3-phosphoglycerate / ADP-D-glucose / ATP / CDP / D-sedoheptulose-1/7-phosphate / FAD / GMP / NAD+ / NADP+ / Octoluse Bisphosphate / Pyroglutamic acid / UDP-D-glucose / UDP-D-glucuronate / UDP-N-acetyl-glucosamine / UDP / UMP / UTP / a-ketoglutarate / citrate/isocitrate / cytidine / dATP / dGMP/AMP / fumarate / glucose-1/6-phosphate / glycerate / guanine / guanosine / hypoxanthine / indole / inosine / nicotinate / ornithine / phosphoenolpyruvate / pyruvate / ribose-phosphate / sarcosine/alanine / sn-glycerol-3-phosphate / succinate/methylmalonic acid / uridine / xanthosine: S2 Table Metabolomics; for Acetyllysine: metabolite Acetyllysine; for N-acetyl-L-ornithine: metabolite N-acetyl-L-ornithine; for N-carbamoyl-L-aspartate: metabolite N-carbamoyl-L-aspartate; for NADPH: metabolite NADPH; for dAMP: metabolite dAMP; for dCMP: metabolite dCMP; for dTDP: metabolite dTDP; for dTMP: metabolite dTMP; for dTTP: metabolite dTTP; for dihydroorotate: metabolite dihydroorotate; for orotate: metabolite orotate; for DLH: peptide DLH; for DLS/SDL/SID: peptide DLS/SDL/SID; for PD: peptide PD; for PEE: peptide PEE; for PVNF: peptide PVNF; for 3-phosphoglycerate: metabolite 3-phosphoglycerate; for ADP-D-glucose: metabolite ADP-D-glucose; for ATP: metabolite ATP; for CDP: metabolite CDP; for CDP / D-sedoheptulose-1/7-phosphate / GMP / Octoluse Bisphosphate / UDP / UMP / UTP / citrate/isocitrate / dGMP/AMP / fumarate / glucose-1/6-phosphate / glycerate / guanine / guanosine / inosine / pyruvate / sarcosine/alanine / succinate/methylmalonic acid / uridine / xanthosine: change in metabolite level after compound treatment; for D-sedoheptulose-1/7-phosphate: metabolite D-sedoheptulose-1/7-phosphate; for FAD: metabolite FAD; for GMP: metabolite GMP; for NAD+: metabolite NAD+; for NADP+: metabolite NADP+; for Octoluse Bisphosphate: metabolite Octoluse Bisphosphate; for Pyroglutamic acid: metabolite Pyroglutamic acid; for UDP-D-glucose: metabolite UDP-D-glucose; for UDP-D-glucuronate: metabolite UDP-D-glucuronate; for UDP-N-acetyl-glucosamine: metabolite UDP-N-acetyl-glucosamine; for UDP: metabolite UDP; for UMP: metabolite UMP; for UTP: metabolite UTP; for a-ketoglutarate: metabolite a-ketoglutarate; for citrate/isocitrate: metabolite citrate/isocitrate; for cytidine: metabolite cytidine; for dATP: metabolite dATP; for dGMP/AMP: metabolite dGMP/AMP; for fumarate: metabolite fumarate; for glucose-1/6-phosphate: metabolite glucose-1/6-phosphate; for glycerate: metabolite glycerate; for guanine: metabolite guanine; for guanosine: metabolite guanosine; for hypoxanthine: metabolite hypoxanthine; for indole: metabolite indole; for inosine: metabolite inosine; for 2_3-Diphosphoglyceric acid / 4-phosphopantothenate / 6-phospho-D-gluconate / FMN / IMP / Pyrophosphate / Sedoheptoluse bisphosphate / cyclic-AMP / glutathione disulfide / lactate / myo-inositol: metabolite level change after treatment; for nicotinate: metabolite nicotinate; for ornithine: metabolite ornithine; for phosphoenolpyruvate: metabolite phosphoenolpyruvate; for pyruvate: metabolite pyruvate; for ribose-phosphate: metabolite ribose-phosphate; for sarcosine/alanine: metabolite sarcosine/alanine; for sn-glycerol-3-phosphate: metabolite sn-glycerol-3-phosphate; for succinate/methylmalonic acid: metabolite succinate/methylmalonic acid; for uridine: metabolite uridine; for xanthosine: metabolite xanthosine
P. falciparum = assay: EC50 listed in S2 Table Metabolomics (used to set the concentration tested); type: cell-based; details: Plasmodium falciparum; EC50 used for Factor_XEC50 in metabolomics; read-out: EC50_nM

`COc1ccccc1CNC(=O)CCn1c(=O)[nH]c2ccccc2c1=O` [MMV665916] was tested, and the Acetyllysine [1] was 0.3638, the N-acetyl-L-ornithine [1] was 0.3943 and the N-carbamoyl-L-aspartate [1] was -0.2097. For the same molecule, the NADPH [1] was -0.7222, the dAMP [1] was 0.5335 and the dCMP [1] was -0.1283. The dTDP [1] was 0.2837, the dTMP [1] was 0.1911 and the dTTP [1] was 0.1028. It also gave a dihydroorotate [1] of 0.195, an orotate [1] of 0.1648 and a DLH [1] of -0.3906. The DLS/SDL/SID [1] was -0.1223, the PD [1] was 0.1255 and the PEE [1] was 0.2968. For the same molecule, the PVNF [1] was -0.3118, the 3-phosphoglycerate [1] was 0.2339 and the ADP-D-glucose [1] was 0.1724. For the same molecule, the ATP [1] was 0.1531, the CDP [1] was 0.2423 and the D-sedoheptulose-1/7-phosphate [1] was 0.1783. The FAD [1] was 0.06654, the GMP [1] was -0.759 and the “NAD+” value [1] was 0.08579. The “NADP+” value [1] was 0.1944, the “Octoluse Bisphosphate” value [1] was 0.5392 and the Pyroglutamic acid [1] was -0.1569. The UDP-D-glucose [1] was 0.1671, the UDP-D-glucuronate [1] was 0.1875 and the UDP-N-acetyl-glucosamine [1] was 0.2144. For the same molecule, the UDP [1] was 0.1783, the UMP [1] was -0.6315 and the UTP [1] was 0.2956. It also gave an a-ketoglutarate [1] of -0.329, a citrate/isocitrate [1] of -0.5155 and a cytidine [1] of -0.1275. It also gave a dATP [1] of 0.146, a dGMP/AMP [1] of 0.3579 and a fumarate [1] of -0.07198. It also gave a glucose-1/6-phosphate [1] of -0.1463, a glycerate [1] of 0.2881 and a guanine [1] of -0.1565. It also gave a guanosine [1] of -0.3335, a hypoxanthine [1] of -0.2904 and an indole [1] of -0.1941. For the same molecule, the inosine [1] was -0.04044, the 2_3-Diphosphoglyceric acid [1] was 0.5062 and the 4-phosphopantothenate [1] was 0.1361. For the same molecule, the 6-phospho-D-gluconate [1] was 0.2552, the FMN [1] was 0.1915 and the IMP [1] was 0.3796. It also gave a Pyrophosphate [1] of 0.2568, a Sedoheptoluse bisphosphate [1] of 0.5745 and a cyclic-AMP [1] of 0.1551. The glutathione disulfide [1] was 0.2989, the lactate [1] was -0.2145 and the myo-inositol [1] was 0.9008. For the same molecule, the nicotinate [1] was -0.1745, the ornithine [1] was 0.1369 and the phosphoenolpyruvate [1] was 0.02242. It also gave a pyruvate [1] of -0.2103, a ribose-phosphate [1] of -0.4062 and a sarcosine/alanine [1] of 0.2908. For the same molecule, the sn-glycerol-3-phosphate [1] was -0.1634, the succinate/methylmalonic acid [1] was -0.1615 and the uridine [1] was -0.1737. For the same molecule, the xanthosine [1] was -0.4685 and the EC50 (P. falciparum) was 72.6 nM.
`COc1cccc(NC(=O)[C@H](C(C)C)n2c(=O)[nH]c3ccccc3c2=O)c1` [MMV665878] showed an Acetyllysine [1] of -3.834, a N-acetyl-L-ornithine [1] of -2.277 and a N-carbamoyl-L-aspartate [1] of -2.026. The NADPH [1] was -0.665, the dAMP [1] was 2.607 and the dCMP [1] was 1.538. The dTDP [1] was 2.818, the dTMP [1] was 4.246 and the dTTP [1] was 1.03. The dihydroorotate [1] was -1.926, the orotate [1] was 0.2146 and the DLH [1] was -4.819. It also gave a DLS/SDL/SID [1] of -3.927, a PD [1] of -1.32 and a PEE [1] of -2.783. For the same molecule, the PVNF [1] was -5.1424, the 3-phosphoglycerate [1] was -0.5747 and the ADP-D-glucose [1] was -0.6055. The ATP [1] was -2.891, the CDP [1] was 0.1584 and the D-sedoheptulose-1/7-phosphate [1] was -0.5795. The FAD [1] was -1.328, the GMP [1] was -2.538 and the “NAD+” value [1] was 0.9896. For the same molecule, the “NADP+” value [1] was -0.2932, the “Octoluse Bisphosphate” value [1] was -2.487 and the Pyroglutamic acid [1] was -0.4358. For the same molecule, the UDP-D-glucose [1] was -0.03487, the UDP-D-glucuronate [1] was -0.6105 and the UDP-N-acetyl-glucosamine [1] was 0.07778. It also gave a UDP [1] of -0.1367, a UMP [1] of 0.1216 and a UTP [1] of -1.546. It also gave an a-ketoglutarate [1] of -0.5207, a citrate/isocitrate [1] of -1.159 and a cytidine [1] of 0.1724. The dATP [1] was -1.5606, the dGMP/AMP [1] was -1.273 and the fumarate [1] was 0.3725. The glucose-1/6-phosphate [1] was -0.9191, the glycerate [1] was 0.3692 and the guanine [1] was -0.09985. For the same molecule, the guanosine [1] was -0.2889, the hypoxanthine [1] was -0.3925 and the indole [1] was -0.3292. For the same molecule, the inosine [1] was -0.04266, the 2_3-Diphosphoglyceric acid [1] was -1.256 and the 4-phosphopantothenate [1] was -0.4545. The 6-phospho-D-gluconate [1] was -0.4297, the FMN [1] was -0.3548 and the IMP [1] was -0.5176. For the same molecule, the Pyrophosphate [1] was -1.335, the Sedoheptoluse bisphosphate [1] was -0.9263 and the cyclic-AMP [1] was -1.127. The glutathione disulfide [1] was -0.2446, the lactate [1] was -1.397 and the myo-inositol [1] was -0.3766. It also gave a nicotinate [1] of 0.2929, an ornithine [1] of 0.191 and a phosphoenolpyruvate [1] of -0.242. It also gave a pyruvate [1] of -1.851, a ribose-phosphate [1] of -0.6091 and a sarcosine/alanine [1] of -1.666. It also gave a sn-glycerol-3-phosphate [1] of 0.02823, a succinate/methylmalonic acid [1] of 0.3592 and a uridine [1] of 0.5173. The xanthosine [1] was -1.769 and the EC50 (P. falciparum) was 139 nM.
`Cc1ccc(N2C(=O)C3C(C2=O)C2(c4ccccc4)C(=O)C3(c3ccccc3)C(c3ccccc3)=C2c2ccccc2)cc1` (stereo not drawn) [MMV666062] was tested, and the Acetyllysine [1] was -0.1709, the N-acetyl-L-ornithine [1] was -0.324 and the N-carbamoyl-L-aspartate [1] was -0.2951. For the same molecule, the NADPH [1] was -0.2149, the dAMP [1] was -0.4875 and the dCMP [1] was -0.7263. It also gave a dTDP [1] of -0.1985, a dTMP [1] of -0.6991 and a dTTP [1] of -0.2344. The dihydroorotate [1] was -0.213, the orotate [1] was -0.7199 and the DLH [1] was -0.006238. For the same molecule, the DLS/SDL/SID [1] was -0.3315, the PD [1] was -0.3487 and the PEE [1] was -0.01834. For the same molecule, the PVNF [1] was -0.09341, the 3-phosphoglycerate [1] was -1.0087 and the ADP-D-glucose [1] was -0.2764. It also gave an ATP [1] of -0.1502, a CDP [1] of -0.3978 and a D-sedoheptulose-1/7-phosphate [1] of -0.4359. The FAD [1] was -0.2118, the GMP [1] was -0.3584 and the “NAD+” value [1] was -0.2488. The “NADP+” value [1] was -0.1786, the “Octoluse Bisphosphate” value [1] was -0.3963 and the Pyroglutamic acid [1] was -0.08618. The UDP-D-glucose [1] was -0.2942, the UDP-D-glucuronate [1] was -0.1481 and the UDP-N-acetyl-glucosamine [1] was -0.3667. The UDP [1] was -0.4806, the UMP [1] was -0.3962 and the UTP [1] was -0.1426. The a-ketoglutarate [1] was -0.4814, the citrate/isocitrate [1] was -0.07191 and the cytidine [1] was -0.4412. The dATP [1] was -0.199, the dGMP/AMP [1] was -0.7601 and the fumarate [1] was -0.1898. For the same molecule, the glucose-1/6-phosphate [1] was 0.1468, the glycerate [1] was -0.3247 and the guanine [1] was -0.8033. It also gave a guanosine [1] of -0.4206, a hypoxanthine [1] of -0.5014 and an indole [1] of -0.4173. The inosine [1] was -0.516, the 2_3-Diphosphoglyceric acid [1] was -0.1968 and the 4-phosphopantothenate [1] was -0.3798. The 6-phospho-D-gluconate [1] was -0.105, the FMN [1] was -0.4755 and the IMP [1] was -0.5384. For the same molecule, the Pyrophosphate [1] was -0.0001746, the Sedoheptoluse bisphosphate [1] was -0.4955 and the cyclic-AMP [1] was -0.438. The glutathione disulfide [1] was -0.4046, the lactate [1] was -0.3401 and the myo-inositol [1] was 0.6705. For the same molecule, the nicotinate [1] was -0.6806, the ornithine [1] was -0.4373 and the phosphoenolpyruvate [1] was -0.3807. For the same molecule, the pyruvate [1] was -0.5819, the ribose-phosphate [1] was -0.7488 and the sarcosine/alanine [1] was -0.5636. It also gave a sn-glycerol-3-phosphate [1] of -0.1452, a succinate/methylmalonic acid [1] of -0.2494 and a uridine [1] of -0.8945. It also gave a xanthosine [1] of -0.2816 and an EC50 (P. falciparum) of 282 nM.
